From patent publication US12583861B2, “Derivatives of imidazo[4,5-d]pyridazine, their preparation and their therapeutic application” (SANOFI, priority 2021, dated 2026)

Biological target: T1, human TLR7 (Homo sapiens, UniProt Q9NYK1)
T1 construct: host or cells: HEK293 (HEK-Blue hTLR7)
T1 sequence (Q9NYK1 27-1049): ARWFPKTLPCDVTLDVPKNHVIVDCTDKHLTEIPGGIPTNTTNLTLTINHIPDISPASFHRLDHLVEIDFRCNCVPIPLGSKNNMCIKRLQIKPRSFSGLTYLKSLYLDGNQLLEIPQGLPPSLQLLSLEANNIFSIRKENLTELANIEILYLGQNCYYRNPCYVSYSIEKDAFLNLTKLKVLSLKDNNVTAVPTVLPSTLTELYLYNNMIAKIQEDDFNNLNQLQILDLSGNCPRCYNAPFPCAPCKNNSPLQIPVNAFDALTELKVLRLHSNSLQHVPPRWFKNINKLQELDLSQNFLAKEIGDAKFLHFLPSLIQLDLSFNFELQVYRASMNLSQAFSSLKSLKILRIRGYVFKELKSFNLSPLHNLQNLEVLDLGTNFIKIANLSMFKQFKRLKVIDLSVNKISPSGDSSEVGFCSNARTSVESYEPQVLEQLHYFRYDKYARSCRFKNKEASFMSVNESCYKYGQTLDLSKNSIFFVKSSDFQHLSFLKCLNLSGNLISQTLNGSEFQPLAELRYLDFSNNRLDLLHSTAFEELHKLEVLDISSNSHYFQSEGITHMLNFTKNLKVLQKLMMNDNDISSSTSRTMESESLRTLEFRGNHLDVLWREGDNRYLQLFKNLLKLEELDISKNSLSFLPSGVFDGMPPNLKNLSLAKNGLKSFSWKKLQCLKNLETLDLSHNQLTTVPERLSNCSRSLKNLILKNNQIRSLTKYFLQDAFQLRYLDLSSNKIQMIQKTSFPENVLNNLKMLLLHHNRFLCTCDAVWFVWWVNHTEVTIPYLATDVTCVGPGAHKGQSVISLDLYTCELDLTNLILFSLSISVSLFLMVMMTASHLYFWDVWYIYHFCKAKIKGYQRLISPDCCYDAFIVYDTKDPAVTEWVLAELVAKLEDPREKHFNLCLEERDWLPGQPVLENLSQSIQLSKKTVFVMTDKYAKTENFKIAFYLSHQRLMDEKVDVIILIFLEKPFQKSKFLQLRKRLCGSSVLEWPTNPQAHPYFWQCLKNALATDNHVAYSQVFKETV
Assay: HEK-Blue hTLR7 reporter cell assay (SEAP, NF-kB/AP-1) for stimulation of human TLR7
Assay type: cell-based
Details: HEK-Blue hTLR7 cells, 24 h incubation, SEAP readout; read-out: TLR7_EC50
Outline: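 Activity expressed as EC50 for half-maximal SEAP induction. Compounds, serially diluted 3-fold from 20 to 0.01 μM, were incubated 24 h at 37 °C, 5% CO2 with HEK-Blue hTLR7 reporter cells (3.10E4/well, plated 18–24 h earlier); supernatant developed with QUANTI-Blue.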

Compound | EC50
CCCCc1nc2c(N)nnc(OC(C)C)c2n1C[C@H]1CCC[C@@H](N)C1 (racemic) [Compound 23, 1-(((1S,3R)-3-aminocyclohexyl)methyl)-2-butyl-7-isopropoxy-1H-imidazo[4,5-d]pyridazin-4-amine (and enantiomer)] | 172 nM
CCCCc1nc2c(N)nnc(OC(C)C)c2n1Cc1ccc(OC)cc1 [Compound 1, 2-butyl-7-isopropoxy-1-(4-methoxybenzyl)-1H-imidazo[4,5-d]pyridazin-4-amine] | 103 nM
CCCCc1nc2c(N)nnc(NC(C)C)c2n1Cc1ccc(OC)cc1 [Compound 2, 2-butyl-N7-isopropyl-1-(4-methoxybenzyl)-1H-imidazo[4,5-d]pyridazin-4,7-diamine] | 53 nM
CCCCc1nc2c(N)nnc(SC(C)C)c2n1Cc1ccc(OC)cc1 [Compound 3, 2-butyl-7-(isopropylthio)-1-(4-methoxybenzyl)-1H-imidazo[4,5-d]pyridazin-4-amine] | 566 nM
CCCCc1nc2c(N)nnc(OCCOC)c2n1Cc1ccc(OC)cc1 [Compound 4, 2-butyl-1-(4-methoxybenzyl)-7-(2-methoxyethoxy)-1H-imidazo[4,5-d]pyridazin-4-amine] | 1260 nM
C=CCOc1nnc(N)c2nc(CCCC)n(Cc3ccc(OC)cc3)c12 [Compound 6, 7-(allyloxy)-2-butyl-1-(4-methoxybenzyl)-1H-imidazo[4,5-d]pyridazin-4-amine] | 295 nM
CCCCc1nc2c(N)nnc(OC3CCCC3)c2n1Cc1ccc(OC)cc1 [Compound 9, 2-butyl-7-(cyclopentyloxy)-1-(4-methoxybenzyl)-1H-imidazo[4,5-d]pyridazin-4-amine] | 135 nM
CCCCc1nc2c(N)nnc(N3CCCC3)c2n1Cc1ccc(OC)cc1 [Compound 10, 2-butyl-1-(4-methoxybenzyl)-7-(pyrrolidin-1-yl)-1H-imidazo[4,5-d]pyridazin-4-amine] | 120 nM
CCCCc1nc2c(N)nnc(-c3cc[nH]c3)c2n1Cc1ccc(OC)cc1 [Compound 14, 2-butyl-1-(4-methoxybenzyl)-7-(1H-pyrrol-3-yl)-1H-imidazo[4,5-d]pyridazin-4-amine] | 219 nM
C=C(C)c1nnc(N)c2nc(CCCC)n(Cc3ccc(OC)cc3)c12 [Compound 17, 2-butyl-1-(4-methoxybenzyl)-7-(prop-1-en-2-yl)-1H-imidazo[4,5-d]pyridazin-4-amine] | 155 nM
CCCCc1nc2c(N)nnc(C(C)C)c2n1Cc1ccc(OC)cc1 [Compound 18, 2-butyl-7-isopropyl-1-(4-methoxybenzyl)-1H-imidazo[4,5-d]pyridazin-4-amine] | 355 nM
CCCCc1nc2c(N)nnc(OC(C)C)c2n1Cc1ccc(CN)cc1 [Compound 21, 1-(4-(aminomethyl)benzyl)-2-butyl-7-isopropoxy-1H-imidazo[4,5-d]pyridazin-4-amine] | 33 nM
CCCCc1nc2c(N)nnc(OC(C)C)c2n1Cc1ccc(CN)cc1 [Compound 22, 1-(4-(aminomethyl)benzyl)-2-butyl-7-isopropoxy-1H-imidazo[4,5-d]pyridazin-4-amine 2,2,2-trifluoroacetate] | 30 nM
CCCCc1nc2c(N)nnc(OC(C)C)c2n1Cc1cccc(CN)c1 [Compound 33, 1-(3-(aminomethyl)benzyl)-2-butyl-7-isopropoxy-1H-imidazo[4,5-d]pyridazin-4-amine 2,2,2-trifluoroacetate] | 392 nM
CCCCc1nc2c(N)nnc(OC(C)C)c2n1Cc1ccc(C=O)cc1 [Compound 34, 4-((4-amino-2-butyl-7-isopropoxy-1H-imidazo[4,5-d]pyridazin-1-yl)methyl)benzaldehyde] | 116 nM
CCCCc1nc2c(N)nnc(OC(C)C)c2n1Cc1ccc(CO)cc1 [Compound 35, (4-((4-amino-2-butyl-7-isopropoxy-1H-imidazo[4,5-d]pyridazin-1-yl)methyl)phenyl)methanol] | 106 nM
CCCCc1nc2c(N)nnc(N(C)C)c2n1C [Compound 41, 2-butyl-N7,N7,1-trimethyl-1H-imidazo[4,5-d]pyridazine-4,7-diamine] | 3070 nM
CCCCc1nc2c(N)nnc(OCC)c2n1Cc1ccc(OC)cc1 [Compound 48, 2-butyl-7-ethoxy-1-(4-methoxybenzyl)-1H-imidazo[4,5-d]pyridazin-4-amine] | 160 nM
CCCCc1nc2c(N)nnc(NCCOC)c2n1Cc1ccc(OC)cc1 [Compound 49, 2-butyl-1-(4-methoxybenzyl)-N7-(2-methoxyethyl)-1H-imidazo[4,5-d]pyridazine-4,7-diamine] | 353 nM
CCCCc1nc2c(N)nnc(N(C)C)c2n1Cc1ccc(OC)cc1 [Compound 71, 2-butyl-1-(4-methoxybenzyl)-N7,N7-dimethyl-1H-imidazo[4,5-d]pyridazine-4,7-diamine] | 291 nM
CCCCc1nc2c(N)nnc(OC(C)C)c2n1Cc1ccccn1 [Compound 75, 2-butyl-7-isopropoxy-1-(pyridin-2-ylmethyl)-1H-imidazo[4,5-d]pyridazin-4-amine] | 179 nM
CCCCc1nc2c(N)nnc(N3CCC(c4ccccc4)C3)c2n1C (stereo not shown) [Compound 89, 2-butyl-1-methyl-7-(3-phenylpyrrolidin-1-yl)-1H-imidazo[4,5-d]pyridazin-4-amine] | 1200 nM
